Data: US4663310A, “Renin inhibitors containing 2-substituted statine” (Merck & Co., Inc., priority 1984, dated 1987)
Starred links: 1 amine or outer side, 2 acyl side, 3 side chain; linkers in the order of their positions; H or OH if unused. Non-standard residues stand in square brackets, D forms with d. Residues, ends and D or L forms follow the SMILES beside them. *: point of attachment. X1 = CC(C)CC(C(=O)[*:2])[C@H](O)[C@H](CC(C)C)N[*:1]; Isobutyryl = CC(C)C(=O)*

Tests used:
human plasma renin = molecular target: T1, human plasma renin (Homo sapiens, UniProt P00797); experiment: Human plasma renin assay; assay type: biochemical; details: read-out: Renin Inhibition Human Plasma I50
T1 construct: Further assays measured human plasma renin and dog plasma renin; from tissue; host or cells: human plasma
T1 sequence (P00797 67-406): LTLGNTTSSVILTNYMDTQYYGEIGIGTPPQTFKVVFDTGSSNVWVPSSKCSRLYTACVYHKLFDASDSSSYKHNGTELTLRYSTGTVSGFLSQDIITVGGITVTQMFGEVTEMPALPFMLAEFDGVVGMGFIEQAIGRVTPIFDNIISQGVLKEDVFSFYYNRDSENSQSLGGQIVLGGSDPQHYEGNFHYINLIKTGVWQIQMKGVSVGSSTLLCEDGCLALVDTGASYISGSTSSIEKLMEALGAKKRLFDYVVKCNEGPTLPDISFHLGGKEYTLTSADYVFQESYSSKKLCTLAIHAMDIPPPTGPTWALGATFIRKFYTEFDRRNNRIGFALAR
Procedure: (§1) Assays were carried out in order to determine the inhibitory potency of the peptides of the present invention. One assay measured the inhibition of hog kidney renin, and was in accordance with the procedure described in Rich et al., J. Med. Chem. 23: 27, 1980, except that a pH of 7.3 was used. Another assay measured the inhibition of human kidney renin purified as described in Bangham, D. R., Robertson, I., Robinson, J. I. S., Robinson, C. J., and Tree, M., Clinical Science and Molecular Medicine, 48 (Supp. 2): 136s-159s (1975), and further purified by affinity chromatography on pepstatin-aminohexyl-Sepharase as described in Poe, M., Wu., J. K., Florance, J. R., Radkey, J. A., Bennett, C. D., and Hoogsteen, K., J. Biol. Chem. 258: 2209-2216 (1983). The assay was also in accordance with Poe et al. cited above. Further assays measured human plasma renin and dog plasma renin in accordance with procedures described in Boger et al., Nature, 303: 81-84 (1983).

dog plasma renin = molecular target: T2, dog plasma renin (Canis lupus familiaris, UniProt Q6DYE7); experiment: Dog plasma renin assay; assay type: biochemical; details: for IC50: read-out: Renin Inhibition Dog Plasma I50
T2 construct: Further assays measured human plasma renin and dog plasma renin; from tissue; host or cells: dog plasma
T2 sequence (Q6DYE7 66-403): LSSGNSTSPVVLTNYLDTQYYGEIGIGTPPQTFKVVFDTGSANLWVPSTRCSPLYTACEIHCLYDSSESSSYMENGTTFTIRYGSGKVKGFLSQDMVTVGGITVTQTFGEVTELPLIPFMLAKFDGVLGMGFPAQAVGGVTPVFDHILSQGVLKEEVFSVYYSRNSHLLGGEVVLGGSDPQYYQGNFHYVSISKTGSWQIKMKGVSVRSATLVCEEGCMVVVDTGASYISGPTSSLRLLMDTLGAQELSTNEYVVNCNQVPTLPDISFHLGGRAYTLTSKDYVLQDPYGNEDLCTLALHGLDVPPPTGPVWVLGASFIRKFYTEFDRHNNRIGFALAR
Procedure: as §1

human kidney renin = molecular target: T3, human kidney renin (Homo sapiens, UniProt P00797); experiment: Inhibition of purified human kidney renin; assay type: biochemical; details: dissociation constant of the inhibited enzyme inhibitor complex
T3 construct: human kidney renin purified as described in Bangham; from tissue; host or cells: human kidney
T3 sequence (P00797 67-406): T1 sequence (P00797 67-406)
Procedure: as §1
Results expressed as KI values refer to the dissociation constant of the inhibited enzyme inhibitor complex. This KI value was obatined as described above. Pepstatin was used as an active control.

hog kidney renin = experiment: Inhibition of hog kidney renin; assay type: biochemical; details: pH 7.3; read-out: Renin Inhibition Hog Kidney I50
Procedure: as §1

acid proteases = details: cited from earlier work
nephrectomized rats = details: after the injection of hog renin into nephrectomized rats; Gross et al.; cited from earlier work

## CC(C)C[C@H](NC(=O)[C@H](CC(C)C)[C@H](O)[C@H](Cc1ccccc1)NC(=O)[C@H](Cc1c[nH]cn1)NC(=O)[C@H](Cc1ccccc1)NC(=O)OC(C)(C)C)C(=O)NCc1ccccc1 [BOCPheHis(2- -i-Bu)AHPPALeu, tert-Butyloxycarbonyl-L-phenylalanyl-L-histidyl-4(S)-amino-3(S)-hydroxy-2(R)-iso-butyl-5-phenylpentanoyl-L-leucyl-benzylamide]
Human plasma renin
  IC50: 8.2 nM
Dog plasma renin
  IC50: 3.5 nM
Human kidney renin
  Ki: 9.3 nM

## CC(C)C[C@H](NC(=O)[C@H](CC(C)C)[C@H](O)[C@H](CC(C)C)NC(=O)[C@H](Cc1c[nH]cn1)NC(=O)[C@H](Cc1ccccc1)NC(=O)OC(C)(C)C)C(=O)NCc1ccccc1 [BOCPheHis(2- -i-Bu)StaLeu]
Dog plasma renin; I 10^-6
  Renin Inhibition Dog Plasma % I: 0%
Human kidney renin
  Ki: 10 nM

## CC(C)CC[C@@H](C(=O)N[C@@H](CC(C)C)C(=O)NCc1ccccc1)[C@H](O)[C@H](Cc1ccccc1)NC(=O)[C@H](Cc1c[nH]cn1)NC(=O)[C@H](Cc1ccccc1)NC(=O)OC(C)(C)C [BOCPheHis(2- -i-Pent)AHPPALeu]
Human plasma renin
  IC50: 65 nM
Dog plasma renin
  IC50: 6.2 nM
Human kidney renin
  Ki: 4.4 nM

## CC(C)CC(C(=O)N[C@@H](CC(C)C)C(=O)N[C@@H](Cc1ccccc1)C(N)=O)[C@H](O)[C@H](CC(C)C)NC(=O)[C@H](Cc1ccccc1)NC(=O)[C@H](Cc1ccccc1)NC(=O)[C@@H]1CCCN1C(=O)[C@H](Cc1c[nH]cn1)NC(=O)C(C)C (some centres unmarked) [IBUHisProPhePhe(2- -i-Bu)StaLeuPheNH2] (Isobutyryl-HPFF[X1]LF-NH2)
Hog kidney renin
  IC50: 22 nM

## Pepstatin
Acid proteases
  inhibition of other acid proteases (selectivity): inhibition of a variety of other acid proteases in addition to renin
Nephrectomized rats
  blood pressure in vivo: reduce blood pressure
